In patent publication US8153556B2, “Synergistic herbicidal compositions containing benfluralin” (Dow AgroSciences LLC, priority 2009, dated 2012):

How the values were obtained:
Assay in all cases: Pre-emergence field weed control in winter wheat (visual rating)
Type in all cases: in vivo
[1] = test system: ALOMY = Alopecurus agrestis L. (blackgrass)
Description: (§1) Soft winter wheat was planted using normal cultural practices in France and Germany in October under normal environmental conditions that allowed rapid germination and growth of wheat and weeds. Fields were prepared as per normal cultural practices, by applying appropriate fertilizers for normal winter wheat growth and yield, working and leveling the ground, and planting at normal time of year using 150 to 170 kg/ha seed with mechanical planters to maximize emergence, growth and yield. Weed infestations varied from 280 to 500 plants per square meter (plants/m^2).
(§2) Treatments consisted of benfluralin applied alone, as well as diflufenican, flufenacet and prosulfocarb applied alone, and in combination with benfluralin, to measure herbicidal weed control and any synergistic interactions. These treatments were applied using backpack sprayers applying spray volumes of 200-250 liters per hectare (L/ha) at a spray pressure of 230 KPA to plots 2.5 meters (m)×8 m, randomized 4 times per treatment. All treatments were applied pre-emergence to the soil, after planting the winter wheat. The pre-emergence treatments were activated with normal rainfall. Treatments were rated on a 0-100% scale, with 0%=no control and 100%=complete control.
(§3) Colby's equation was used to determine the herbicidal effects expected from the mixtures (Colby, S. R. Weeds 1967, 15, 20-22. Calculation of the synergistic and antagonistic response of herbicide combinations).
(§4) The following equation was used to calculate the expected activity of mixtures containing two active ingredients, A and B: Expected=A+B−(A×B/100)
(§5) A=observed efficacy of active ingredient A at the same concentration as used in the mixture.
(§6) B=observed efficacy of active ingredient B at the same concentration as used in the mixture.
(§7) The herbicide tankmix combinations tested, application rates and ratios employed, plant species tested, and results are given in Tables 1 to 6.

[2] = test system: VERHE = Veronica hederifolia L. (ivyleaf speedwell); conditions: Test 2, 150 days after application, benfluralin 1,200 g ai/ha, flufenacet 240 g ai/ha
Description: as §1, §2, §3, §4, §5, §6, §7

[3] = test system: GERRT = Geranium rotundifolium L. (round-leaved Cranesbill); conditions: benfluralin 1,000 g ai/ha
Description: as §1, §2, §3, §4, §5, §6, §7

[4] = test system: GALAP = Galium aparine L. (cleavers); conditions: benfluralin 1,000 g ai/ha, prosulfocarb 3,000 g ai/ha
Description: as §1, §2, §3, §4, §5, §6, §7

[5] = Test 1, 13 days after application, benfluralin 1,200 g ai/ha, flufenacet 240 g ai/ha
[6] = Test 1, 27 days after application, benfluralin 1,000 g ai/ha, diflufenican 100 g ai/ha
[7] = Test 1, 27 days after application, benfluralin 1,000 g ai/ha, prosulfocarb 3,000 g ai/ha
[8] = Test 1, 174 days after application, benfluralin 1,000 g ai/ha, diflufenican 100 g ai/ha
[9] = Test 1, 174 days after application, benfluralin 1,000 g ai/ha, prosulfocarb 3,000 g ai/ha
[10] = Test 1, 236 days after application, benfluralin 1,000 g ai/ha, diflufenican 100 g ai/ha
[11] = Test 1, 236 days after application, benfluralin 1,000 g ai/ha, prosulfocarb 3,000 g ai/ha
[12] = Test 1, 236 days after application, benfluralin 1,200 g ai/ha, flufenacet 240 g ai/ha
[13] = Test 2, 169 days after application, benfluralin 1,000 g ai/ha, diflufenican 100 g ai/ha
[14] = Test 2, 189 days after application, benfluralin 1,000 g ai/ha, prosulfocarb 3,000 g ai/ha
[15] = Test 2, 189 days after application, benfluralin 1,200 g ai/ha, flufenacet 240 g ai/ha
[16] = Test 2, 199 days after application, benfluralin 1,000 g ai/ha, diflufenican 100 g ai/ha
[17] = Test 1, 27 days after application, diflufenican 100 g ai/ha
[18] = Test 1, 27 days after application, prosulfocarb 3,000 g ai/ha
[19] = Test 1, 174 days after application, prosulfocarb 3,000 g ai/ha
[20] = Test 1, 236 days after application, diflufenican 100 g ai/ha
[21] = Test 1, 236 days after application, prosulfocarb 3,000 g ai/ha
[22] = Test 1, 27 days after application
[23] = Test 1, 174 days after application
[24] = Test 1, 236 days after application

SMILES	% Visual Weed Control ALOMY Obs [1, 5] [%]	% Visual Weed Control ALOMY Obs [1, 6] [%]	% Visual Weed Control ALOMY Obs [1, 7] [%]	% Visual Weed Control ALOMY Obs [1, 8] [%]	% Visual Weed Control ALOMY Obs [1, 9] [%]	% Visual Weed Control ALOMY Obs [1, 10] [%]	% Visual Weed Control ALOMY Obs [1, 11] [%]	% Visual Weed Control ALOMY Obs [1, 12] [%]	% Visual Weed Control ALOMY Obs [1, 13] [%]	% Visual Weed Control ALOMY Obs [1, 14] [%]	% Visual Weed Control ALOMY Obs [1, 15] [%]	% Visual Weed Control ALOMY Obs [1, 16] [%]	% Visual Weed Control VERHE Obs [2] [%]	% Visual Weed Control GERRT Obs [3, 17] [%]	% Visual Weed Control GERRT Obs [3, 18] [%]	% Visual Weed Control GERRT Obs [3, 19] [%]	% Visual Weed Control GERRT Obs [3, 20] [%]	% Visual Weed Control GERRT Obs [3, 21] [%]	% Visual Weed Control GALAP Obs [4, 22] [%]	% Visual Weed Control GALAP Obs [4, 23] [%]	also measured
CCCCN(CC)c1c([N+](=O)[O-])cc(C(F)(F)F)cc1[N+](=O)[O-] [Benfluralin, N-butyl-N-ethyl-2,6-dinitro-4-(trifluoromethyl)benzenamine]	7	17	17	20	20	23	23	29	0	0	0	0	43	6	6	7	7	7	7	8	% Visual Weed Control GALAP Obs [4, 24]: 7%
O=C(Nc1ccc(F)cc1F)c1cccnc1Oc1cccc(C(F)(F)F)c1 [Diflufenican, N-(2,4-difluorophenyl)-2-[3-(trifluoromethyl)phenoxy]-3-pyridinecarboxamide]	–	19	–	22	–	23	–	–	0	–	–	7	–	72	–	–	63	–	–	–	–
CC(C)N(C(=O)COc1nnc(C(F)(F)F)s1)c1ccc(F)cc1 [Flufenacet, N-(4-fluorophenyl)-N-(1-methylethyl)-2-[[5-(trifluoromethyl)-1,3,4-thiadiazol-2-yl]oxy]acetamide]	26	–	–	–	–	–	–	80	–	–	82	–	0	–	–	–	–	–	–	–	–
CCCN(CCC)C(=O)SCc1ccccc1 [Prosulfocarb, S-(phenylmethyl) dipropylcarbamothioate]	–	–	30	–	33	–	35	–	–	30	–	–	–	–	21	25	–	27	37	39	% Visual Weed Control GALAP Obs [4, 24]: 42%
